Assay results reported in patent publication US11339136B2 (Novartis AG, priority 2016, dated 2022).

Target: T1, hNLRP3 (Homo sapiens, UniProt Q96P20)
T1 construct: THP-1 cells were purchased from the American Type Culture Collection; host or cells: THP-1 cells, PMA-differentiated
Test: IL-1β production in PMA-differentiated THP-1 cells stimulated with gramicidin
Type: cell-based
Settings: gramicidin 5 μM, IL-1β in supernatant
Protocol: Bioassay: IL-1β Production in PMA-Differentiated THP-1 Cells Stimulated with Gramicidin. Procedure 1:
Cell culture—THP-1 cells were purchased from the American Type Culture Collection and sub-cultured according to instructions from the supplier. Prior to experiments, cells were cultured in RPMI 1640 containing 10% heat inactivated FBS, penicillin (100 units/ml) and streptomycin (100 μg/ml), and maintained in log phase prior to experimental setup. Prior to the experiment THP-1 were treated with PMA (Phorbol 12-myristate 13-acetate) (10 μg/ml) for 24 hours. The day of the experiment the media was removed and attaching cells were treated with trypsin for 2 minutes, cells were then collected, washed with PBS (phosphate buffer saline), spin down, resuspended in 2% heat inactivated FBS with RPMI at a concentration of 1×10^6 cells/ml, and 100 ul was plated in a 96 well plate. Cells were incubated with compounds for 1 hours and then stimulated with Gramicidin (5 μM) (Enzo) for 2 hours. Cell free supernatant was collected and the production of IL-1β was evaluated by ELISA. Compounds were dissolved in dimethyl sulfoxide (DMSO) and added to the culture medium to achieve desired concentration (e.g. 100, 30, 10, 3, 1, 0.3 or 0.1 μM). A vehicle only control was run concurrently with each experiment. Final DMSO concentration was 1%.
THP-1 cells were purchased from the American Type Culture Collection and sub-cultured according to instructions from the supplier. Prior to experiments, cells were cultured in complete RPMI 1640 (containing 10% heat inactivated FBS, penicillin (100 units/ml) and streptomycin (100 μg/ml)), and maintained in log phase prior to experimental setup. Prior to the experiment THP-1 were treated with PMA (Phorbol 12-myristate 13-acetate) (20 ng/ml) for 16-18 hours. On the day of the experiment the media was removed and adherent cells were detached with trypsin for 5 minutes. Cells were then harvested, washed with complete RPMI 1640, spun down, resuspended in RPMI 1640 (containing 2% heat inactivated FBS, penicillin (100 units/ml) and streptomycin (100 μg/ml). The cells were plated in a 384-well plate at a density of 50,000 cells/well (final assay volume 50 μl). Compounds were dissolved in dimethyl sulfoxide (DMSO) and added to the culture medium to achieve desired concentration (e.g. 100, 33, 11, 3.7, 1.2, 0.41, 0.14, 0.046, 0.015, 0.0051, 0.0017 μM). Cells were incubated with compounds for 1 hour and then stimulated with gramicidin (5 μM) (Enzo) for 2 hours. Cell free supernatant was collected and the production of IL-1β was evaluated by HTRF (cisbio). A vehicle only control was run concurrently with each experiment. Final DMSO concentration was 0.38%.

T1 sequence (Q96P20 whole entry): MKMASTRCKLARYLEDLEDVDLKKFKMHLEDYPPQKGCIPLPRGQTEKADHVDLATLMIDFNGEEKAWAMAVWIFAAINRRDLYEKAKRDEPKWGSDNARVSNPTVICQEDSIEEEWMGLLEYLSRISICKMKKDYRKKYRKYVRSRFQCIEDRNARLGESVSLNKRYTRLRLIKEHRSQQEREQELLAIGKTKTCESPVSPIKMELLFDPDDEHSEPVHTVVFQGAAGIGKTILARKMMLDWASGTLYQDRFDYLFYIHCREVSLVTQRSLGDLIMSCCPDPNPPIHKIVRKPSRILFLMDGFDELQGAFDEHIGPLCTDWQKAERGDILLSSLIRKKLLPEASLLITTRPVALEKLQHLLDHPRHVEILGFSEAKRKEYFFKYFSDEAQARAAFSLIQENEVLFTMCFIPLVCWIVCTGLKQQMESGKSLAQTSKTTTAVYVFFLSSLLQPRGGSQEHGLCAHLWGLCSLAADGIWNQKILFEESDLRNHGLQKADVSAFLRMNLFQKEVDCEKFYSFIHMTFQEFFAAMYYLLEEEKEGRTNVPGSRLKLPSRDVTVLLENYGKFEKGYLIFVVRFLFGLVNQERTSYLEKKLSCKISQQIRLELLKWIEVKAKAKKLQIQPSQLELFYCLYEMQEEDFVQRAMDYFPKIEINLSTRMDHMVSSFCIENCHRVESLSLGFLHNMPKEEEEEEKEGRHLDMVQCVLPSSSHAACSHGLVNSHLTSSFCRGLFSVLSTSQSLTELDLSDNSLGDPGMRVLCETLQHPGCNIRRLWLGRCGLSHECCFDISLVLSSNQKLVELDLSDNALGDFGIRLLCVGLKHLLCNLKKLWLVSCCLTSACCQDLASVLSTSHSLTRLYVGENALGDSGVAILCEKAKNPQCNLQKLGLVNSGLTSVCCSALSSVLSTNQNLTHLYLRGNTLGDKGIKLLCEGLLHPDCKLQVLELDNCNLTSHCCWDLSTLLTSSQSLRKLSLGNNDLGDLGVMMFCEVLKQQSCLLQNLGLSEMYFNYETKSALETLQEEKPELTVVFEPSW

| IC50 (Table 2) | IC50 (Table 1) | Structure (SMILES) |
| --- | --- | --- |
| 1 to 5 µM |  | CC(C)(O)c1csc(S(=O)(=O)NC(=O)Nc2cccc3c2CCC3)c1 [Compound 191, N-(2,3-dihydro-1H-inden-4-ylcarbamoyl)-4-(2-hydroxypropan-2-yl) thiophene-2-sulfonamide] |
| 1 to 5 µM |  | CCc1ccc2c(c1NC(=O)NS(=O)(=O)c1ncc(C(C)(C)O)s1)CCC2 [Compound 165, N-(5-ethyl-2,3-dihydro-1H-inden-4-ylcarbamoyl)-5-(2-hydroxypropan-2-yl) thiazole-2-sulfonamide] |
| < 1 µM |  | CC(C)c1cc(F)cc(C(C)C)c1NC(=O)NS(=O)(=O)c1ccc(C2(O)CC2)s1 [Compound 198, N-(4-fluoro-2,6-diisopropylphenylcarbamoyl)-5-(1-hydroxycyclopropyl) thiophene-2-sulfonamide] |
| 1 to 5 µM |  | CCc1ccc2c(c1NC(=O)NS(=O)(=O)c1cc(C(C)(C)O)cs1)CCC2 [Compound 166, N-(5-ethyl-2,3-dihydro-1H-inden-4-ylcarbamoyl)-4-(2-hydroxypropan-2-yl)thiophene-2-sulfonamide] |
| < 1 µM |  | O=C(Nc1c2c(cc3c1CCC3)CCC2)NS(=O)(=O)c1cc(C2(O)CC2)co1 [Compound 247, 1-(1,2,3,5,6,7-hexahydro-s-indacen-4-yl)-3-[4-(1-hydroxycyclopropyl)furan-2-sulfonyl]urea] |
| < 1 µM |  | CC(C)c1ccc(Cl)c(C(C)C)c1NC(=O)NS(=O)(=O)c1cc(C2(O)CC2)co1 [Compound 181, N-(3-chloro-2,6-diisopropylphenylcarbamoyl)-4-(1-hydroxycyclopropyl) furan-2-sulfonamide] |
| 5 to 15 µM |  | CC(C)c1ccc(F)c(C(C)C)c1NC(=O)NS(=O)(=O)c1ncc(C2(O)CCC2)s1 [Compound 169, N-(3-fluoro-2,6-diisopropylphenylcarbamoyl)-5-(1-hydroxycyclobutyl) thiazole-2-sulfonamide] |
| < 1 µM |  | CC(C)c1cc(Cl)cc(C(C)C)c1NC(=O)NS(=O)(=O)c1cc(C2(O)CC2)co1 [Compound 236, N-(4-chloro-2,6-diisopropylphenyl-carbamoyl)-4-(1-hydroxycyclo-propyl)furan-2-sulfonamide] |
| 1 to 5 µM |  | CC(C)(O)c1ncsc1S(=O)(=O)NC(=O)Nc1c2c(c(F)c3c1CCC3)CCC2 [Compound 268] |
| < 1 µM |  | CC(C)c1cc(Cl)cc(C(C)C)c1NC(=O)NS(=O)(=O)c1cc(C2(O)CC2)cs1 [Compound 229, N-(4-chloro-2,6-diisopropylphenyl-carbamoyl)-4-(1-hydroxycyclo-propyl)thiophene-2-sulfonamide] |
| 1 to 5 µM |  | O=C(Nc1cccc2c1CCC2)NS(=O)(=O)c1cc(C2(O)CC2)co1 [Compound 192, N-(2,3-dihydro-1H-inden-4-ylcarbamoyl)-4-(1-hydroxycyclopropyl) furan-2-sulfonamide] |
| < 1 µM |  | CC(C)(O)c1cnc(S(=O)(=O)NC(=O)Nc2c3c(cc4c2CCC4)CCC3)s1 [Compound 233, N-(1,2,3,5,6,7-hexahydros-indacen-4-ylcarbamoyl)-5-(2-hydroxypropan-2-yl)thiazole-2-sulfonamide] |
| 15 to 35 µM |  | CC(C)c1ccc2c(c1NC(=O)NS(=O)(=O)c1cc(C(C)(C)O)cs1)CCC2 [Compound 175, 4-(2-hydroxypropan-2-yl)-N-(5-isopropyl-2,3-dihydro-1H-inden-4-ylcarbamoyl) thiophene-2-sulfonamide] |
| 1 to 5 µM |  | CC(C)(O)c1cnc(S(=O)(=O)NC(=O)Nc2cccc3c2CCC3)s1 [Compound 190, N-(2,3-dihydro-1H-inden-4-ylcarbamoyl)-5-(2-hydroxypropan-2-yl)thiazole-2-sulfonamide] |
| < 1 µM |  | N#Cc1c2c(c(NC(=O)NS(=O)(=O)c3cc(C4(O)CC4)co3)c3c1CCC3)CCC2 [Compound 206, N-(8-cyano-1,2,3,5,6,7-hexahydros-indacen-4-ylcarbamoyl)-4-(1-hydroxycyclopropyl) furan-2-sulfonamide] |
|  | < 1 µM | CC(C)(O)c1coc(S(=O)(=O)NC(=O)Nc2c3c(c(C#N)c4c2CCC4)CCC3)c1 [Compound 105, N-(8-cyano-1,2,3,5,6,7-hexahydros-indacen-4-ylcarbamoyl)-4-(2-hydroxypropan-2-yl)furan-2-sulfonamide] |
| < 1 µM |  | CC(C)c1ccc(F)c(C(C)C)c1NC(=O)NS(=O)(=O)c1cc(C2(O)CC2)co1 [Compound 212] |

The next lines start with the compound.

| Structure (SMILES) | IC50 (Table 2) | IC50 (Table 1) |
| --- | --- | --- |
| CC(C)c1ccc(Cl)c(C(C)C)c1NC(=O)NS(=O)(=O)c1ncc(C(C)(C)O)s1 [Compound 179, N-(3-chloro-2,6-diisopropylphenylcarbamoyl)-5-(2-hydroxypropan-2-yl)thiazole-2-sulfonamide] | 1 to 5 µM |  |
| CC(C)c1cccc(C(C)C)c1NC(=O)NS(=O)(=O)c1cnc(C(C)(C)O)s1 [Compound 270] | 1 to 5 µM |  |
| CC(C)c1cc(C#N)cc(C(C)C)c1NC(=O)NS(=O)(=O)c1nc(C(C)(C)O)cs1 [Compound 146, N-(4-cyano-2,6-diisopropylphenylcarbamoyl)-4-(2-hydroxypropan-2-yl)thiazole-2-sulfonamide] | 1 to 5 µM |  |
| CC(C)c1cccc(C(C)C)c1NC(=O)NS(=O)(=O)c1ncc(C(C)(C)O)s1 [Compound 261] | 1 to 5 µM |  |
| CC(C)c1cc(F)cc(C(C)C)c1NC(=O)NS(=O)(=O)c1ccc(C(C)(C)O)s1 [Compound 257] | < 1 µM |  |
| CC(C)c1ccc(F)c(C(C)C)c1NC(=O)NS(=O)(=O)c1cnc(C(C)(C)O)s1 [Compound 274] | 5 to 15 µM |  |
| CC(C)(O)c1cnc(S(=O)(=O)NC(=O)Nc2c3c(c(F)c4c2CCC4)CCC3)s1 [Compound 209, N-(8-fluoro-1,2,3,5,6,7-hexahydros-indacen-4-ylcarbamoyl)-5-(2-hydroxypropan-2-yl)thiazole-2-sulfonamide] | < 1 µM |  |
| CC(C)c1cc(Cl)cc(C(C)C)c1NC(=O)NS(=O)(=O)c1ncc(C(C)(C)O)s1 [Compound 219, N-(4-chloro-2,6-diisopropylphenyl-carbamoyl)-5-(2-hydroxypropan-2-yl)thiazole-2-sulfonamide] | < 1 µM |  |
| CC(C)c1cc(F)cc(C(C)C)c1NC(=O)NS(=O)(=O)c1cc(C(C)(C)O)cs1 [Compound 211, N-(4-fluoro-2,6-diisopropylphenyl-carbamoyl)-4-(2-hydroxypropan-2-yl)thiophene-2-sulfonamide] | < 1 µM |  |
| Cc1sc(S(=O)(=O)NC(=O)Nc2c(C(C)C)ccc(C#N)c2C(C)C)cc1C(C)(C)O [Compound 264, N-(3-cyano-2,6-diisopropylphenylcarbamoyl)-4-(2-hydroxypropan-2-yl)-5-methylthiophene-2-sulfonamide] | 5 to 15 µM |  |
| CC(C)c1cc(F)cc(C(C)C)c1NC(=O)NS(=O)(=O)c1nc(C(C)(C)O)cs1 [Compound 148, N-(4-fluoro-2,6-diisopropylphenylcarbamoyl)-4-(2-hydroxypropan-2-yl) thiazole-2-sulfonamide] | 1 to 5 µM |  |
| CC(C)c1cccc(C(C)C)c1NC(=O)NS(=O)(=O)c1ccc(C(C)(C)O)s1 [Compound 188, N-(2,6-diisopropylphenylcarbamoyl)-5-(2-hydroxypropan-2-yl) thiophene-2-sulfonamide] | 1 to 5 µM |  |
| CC(C)c1cc(C(N)=O)cc(C(C)C)c1NC(=O)NS(=O)(=O)c1cc(C(C)(C)O)co1 [Compound 116, 4-(3-(4-(2-hydroxypropan-2-yl)furan-2-ylsulfonyl)ureido)-3,5-diisopropylbenz-amide] |  | 15 to 35 µM |
| CC(C)c1cc(F)cc(C(C)C)c1NC(=O)NS(=O)(=O)c1cc(C(C)(C)O)co1 [Compound 115, N-(4-fluoro-2,6-diisopropylphenyl-carbamoyl)-4-(2-hydroxypropan-2-yl)furan-2-sulfonamide] |  | < 1 µM |
| CC(C)c1cc(F)cc(C(C)C)c1NC(=O)NS(=O)(=O)c1cc(C(C)(C)O)c(Cl)s1 [Compound 253, 5-chloro-N-(4-fluoro-2,6-diisopropylphenyl-carbamoyl)-4-(2-hydroxypropan-2-yl)thiophene-2-sulfonamide] | < 1 µM |  |
| Cc1sc(S(=O)(=O)NC(=O)Nc2c(C(C)C)cc(C#N)cc2C(C)C)cc1C(C)(C)O [Compound 162, N-(4-cyano-2,6-diisopropylphenyl-carbamoyl)-4-(2-hydroxypropan-2-yl)-5-methylthiophene-2-sulfonamide] | < 1 µM |  |
| CC(C)c1cc(F)cc(C(C)C)c1NC(=O)NS(=O)(=O)c1ncc(C(C)(C)O)s1 [Compound 139, N-(4-fluoro-2,6-diisopropylphenyl-carbamoyl)-5-(2-hydroxypropan-2-yl)thiazole-2-sulfonamide] | < 1 µM |  |
